Here are results for six compounds from ChEMBL document CHEMBL1135239, “Imidazo[5,1-f]triazin-4(3H)-ones, a new class of potent PDE 5 inhibitors” (Bioorg Med Chem Lett, 2002).

One assay has as its target Phosphodiesterase 3 (Homo sapiens, UniProt Q14432+Q13370). Kind of assay: Inhibition of Phosphodiesterase 3. The class given is protein assay.
Another assay deals with Phosphodiesterase 1 (Bos taurus, UniProt Q01061+P14100). Kind of assay: Inhibition of Phosphodiesterase 1. The class given is protein assay.
Another assay concerns the target Phosphodiesterase 4 (Homo sapiens, UniProt P27815+Q08499+Q07343+Q08493). Description: Inhibition of Phosphodiesterase 4. Type of assay: protein assay.
For assay [1], the target named is cGMP-specific 3',5'-cyclic phosphodiesterase (Homo sapiens, UniProt O76074).
The next assay has as its system Oryctolagus cuniculus. Kind of assay: In vivo minimal effective dose for inhibition of phosphodiesterase in conscious rabbit model by peroral administration. Type of assay: functional. The following applies: po, read-out: MED.

What is called IC50 is the concentration needed to halve the response being measured. A low value points to higher potency. For orientation: pIC50 means the negative decadic logarithm of the IC50, by convention in mol/L. Read a low pIC50 as a high IC50.

pIC50: −log10 of the molar value.

Regarding `CCCc1nc(C)c2c(=O)[nH]c(-c3cc(S(=O)(=O)N4CCN(C)CC4)ccc3OCC)nn12`, the IC50 was more than 500 nM against Phosphodiesterase 3 and 300 nM against Phosphodiesterase 1.
For the compound `CCCOc1ccc(S(=O)(=O)N2CCN(C)CC2)cc1-c1nc2c(ncn2CCC)c(=O)[nH]1`, the IC50 at Phosphodiesterase 3 and at Phosphodiesterase 4 was more than 500 nM throughout.
In the case of `CCCc1nc(C)c2c(=O)[nH]c(-c3ccccc3OCC)nn12`, the IC50 on Phosphodiesterase 3 is reported as more than 500 nM; at Phosphodiesterase 4, more than 500 nM; against Phosphodiesterase 1, 300 nM. In assay [1], this compound showed a pIC50 of 8.30.
Consider `CCCOc1ccccc1-c1nc2c(ncn2CCC)c(=O)[nH]1`, for which the IC50 on Phosphodiesterase 3 and against Phosphodiesterase 4 was more than 500 nM in each case. The pIC50 in assay [1] is 8.00.
Take `CCCc1nn(C)c2c(=O)[nH]c(-c3ccccc3OCC)nc12`: the concentration for half-maximal inhibition (IC50) at Phosphodiesterase 3 and at Phosphodiesterase 4 was more than 500 nM throughout. Further, the pIC50 in assay [1] was 7.40.
Take `CCCc1nc(C)c2c(O)nc(-c3cc(S(=O)(=O)N4CCN(CC)CC4)ccc3OCC)nn12.Cl` [VARDENAFIL HYDROCHLORIDE]: the minimal effective dose with Oryctolagus cuniculus was 3 mg/kg. At Phosphodiesterase 1, this compound gave an IC50 of 180 nM.
